Assay results from ChEMBL document CHEMBL1201862, “PubChem BioAssay data set” (2004).
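Values below derive from 48-hour exposures of cells grown in 96-well plates, with endpoints linearly interpolated between the two concentrations bracketing the appropriate inhibition level. GI50 is the concentration that inhibits growth by half.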 Activity calls are given as the source filed them. Rule as the data show it: active = GI50 up to about 1.1 µM and inactive = higher.

Legend:
Assay in all cases: NCI tumour cell line growth inhibition, 48 h
786-0 = test system: 786-0
ACHN = test system: ACHN
BT-549 = test system: BT-549
CAKI-1 = test system: CAKI-1
HCC 2998 = test system: HCC 2998
HCT-116 = test system: HCT-116
HOP-62 = test system: HOP-62
HT-29 = test system: HT-29
Hs-578T = test system: Hs-578T
IGROV-1 = test system: IGROV-1
KM12 = test system: KM12
MDA-MB-231 = test system: MDA-MB-231
Malme-3M = test system: Malme-3M
NCI-H460 = test system: NCI-H460
OVCAR-5 = test system: OVCAR-5
SF-539 = test system: SF-539
SK-MEL-28 = test system: SK-MEL-28
SR = test system: SR
TK-10 = test system: TK-10

| SMILES | GI50 (786-0) | GI50 (ACHN) | GI50 (BT-549) | GI50 (CAKI-1) | GI50 (HCC 2998) | GI50 (HCT-116) | GI50 (HOP-62) | GI50 (HT-29) | GI50 (Hs-578T) | GI50 (IGROV-1) | GI50 (KM12) | GI50 (MDA-MB-231) | GI50 (Malme-3M) | GI50 (NCI-H460) | GI50 (OVCAR-5) | GI50 (SF-539) | GI50 (SK-MEL-28) | GI50 (SR) | GI50 (TK-10) |
| --- | --- | --- | --- | --- | --- | --- | --- | --- | --- | --- | --- | --- | --- | --- | --- | --- | --- | --- | --- |
| O=C(O)Cc1ccc(Oc2nc3ccccc3nc2-c2cccs2)cc1 | 80 µM (inactive) | 56.6 µM (inactive) | 30.5 µM (inactive) | 55.7 µM (inactive) | 57.4 µM (inactive) | 54.6 µM (inactive) | > 100 µM (inactive) | 42.6 µM (inactive) | 61.7 µM (inactive) | 68.9 µM (inactive) | 44.2 µM (inactive) | > 100 µM (inactive) | > 100 µM (inactive) | 50.7 µM (inactive) | 62.7 µM (inactive) | 79.4 µM (inactive) | 60.4 µM (inactive) | 38.8 µM (inactive) | 95.1 µM (inactive) |
| Cc1sc2nc(-c3ccc([N+](=O)[O-])cc3)c(/C=N/N=C(N)N)n2c1C | 0.221 µM (active) | 1.33 µM (inactive) | 1.41 µM (inactive) | 2.07 µM (inactive) | 0.175 µM (active) | 0.173 µM (active) | 0.689 µM (active) | 0.432 µM (active) | 1.61 µM (inactive) | 1.4 µM (inactive) | 0.301 µM (active) | 0.28 µM (active) | 1.17 µM (inactive) | 1.75 µM (inactive) | 1.36 µM (inactive) | 1.72 µM (inactive) | 0.361 µM (active) | 0.217 µM (active) | 1.5 µM (inactive) |
| CNC1=C(C)C(=O)C(O)=C([C@H](C)CCC=C(C)C)C1=O | 24.9 µM (inactive) | 11.2 µM (inactive) | 52.2 µM (inactive) | 11.6 µM (inactive) | 31.8 µM (inactive) | 33.9 µM (inactive) | 12.8 µM (inactive) | 36.6 µM (inactive) | 28.3 µM (inactive) | 3.91 µM (inactive) | 17 µM (inactive) | 48 µM (inactive) | 16 µM (inactive) | 10.5 µM (inactive) | 77.8 µM (inactive) | – | 31.4 µM (inactive) | 7.38 µM (inactive) | 31 µM (inactive) |
| COC1=CC(=O)c2c(c(COP(=O)(N(C)CCBr)N(C)CCBr)cn2C)C1=O | < 0.0103 µM (active) | < 0.01 µM (active) | 0.078 µM (active) | < 0.01 µM (active) | 0.0373 µM (active) | < 0.01 µM (active) | < 0.0203 µM (active) | < 0.0219 µM (active) | 0.392 µM (active) | 1.17 µM (inactive) | 0.219 µM (active) | 0.296 µM (active) | 0.0811 µM (active) | < 0.01 µM (active) | 0.148 µM (active) | < 0.0114 µM (active) | 0.141 µM (active) | < 0.01 µM (active) | 0.17 µM (active) |
| COC(=O)N1CC[C@@H]2CCC=C(c3cccc4c3OCO4)[C@@H]21 | > 100 µM (inactive) | > 100 µM (inactive) | 81.5 µM (inactive) | > 100 µM (inactive) | > 100 µM (inactive) | > 100 µM (inactive) | > 100 µM (inactive) | 79.6 µM (inactive) | > 100 µM (inactive) | > 100 µM (inactive) | > 100 µM (inactive) | > 100 µM (inactive) | > 100 µM (inactive) | 60 µM (inactive) | > 100 µM (inactive) | > 100 µM (inactive) | > 100 µM (inactive) | > 100 µM (inactive) | 82.8 µM (inactive) |
| O=C(c1ccco1)N(Cc1cccnc1)C(=S)N(Cc1cccnc1)C(=O)c1ccco1 | 3.06 µM (inactive) | 17 µM (inactive) | 23.2 µM (inactive) | 19.9 µM (inactive) | 17.5 µM (inactive) | 7.67 µM (inactive) | 13.1 µM (inactive) | 17.6 µM (inactive) | 23.3 µM (inactive) | – | 3.9 µM (inactive) | 8.75 µM (inactive) | 16.7 µM (inactive) | 22.6 µM (inactive) | 23.7 µM (inactive) | 11.1 µM (inactive) | 20.1 µM (inactive) | 5.28 µM (inactive) | 10.8 µM (inactive) |
| c1ccc(/C(=N/Nc2ccccn2)c2ncccn2)cc1 | 0.8 µM (active) | 0.112 µM (active) | 11.5 µM (inactive) | 0.0528 µM (active) | > 30 µM (inactive) | 0.524 µM (active) | 3.31 µM (inactive) | < 0.01 µM (active) | 2.59 µM (inactive) | 2.07 µM (inactive) | 3.18 µM (inactive) | 0.55 µM (active) | 0.538 µM (active) | 0.906 µM (active) | 2.77 µM (inactive) | 3.52 µM (inactive) | 3.93 µM (inactive) | 0.929 µM (active) | – |
| CCCCOCCOCCOC1=CC(=O)c2c(O)ccc(O)c2C1=O | 1.6 µM (inactive) | 1.66 µM (inactive) | 1.77 µM (inactive) | 1.95 µM (inactive) | 1.82 µM (inactive) | 1.76 µM (inactive) | 1.79 µM (inactive) | – | 2.55 µM (inactive) | 1.89 µM (inactive) | 1.83 µM (inactive) | 1.73 µM (inactive) | 0.4 µM (active) | 1.95 µM (inactive) | – | 2.03 µM (inactive) | 1.53 µM (inactive) | 2.7 µM (inactive) | 3.05 µM (inactive) |
| COC(=O)/C=C1\C(=O)C=C2[C@@H]3C[C@H]4C[C@H](CC[C@@]4(C)N21)C3(C)NC(C)=O (stereo partly drawn) | 3.51 µM (inactive) | 16 µM (inactive) | 11.1 µM (inactive) | 5.64 µM (inactive) | 26.9 µM (inactive) | 8.97 µM (inactive) | 20.7 µM (inactive) | 8.02 µM (inactive) | 10.9 µM (inactive) | 20 µM (inactive) | 16 µM (inactive) | 26 µM (inactive) | – | 29.8 µM (inactive) | 18.1 µM (inactive) | 3.33 µM (inactive) | 3.12 µM (inactive) | 18.8 µM (inactive) | 15.7 µM (inactive) |
| CC1=C(C(=O)OC2CC3CCC2(C)C3(C)C)C2Nc3ccccc3N(C)C2O1 (stereo not drawn) | 2.51 µM (inactive) | 2.74 µM (inactive) | 2.34 µM (inactive) | 2.95 µM (inactive) | 1.66 µM (inactive) | 2.79 µM (inactive) | 3.84 µM (inactive) | 1.56 µM (inactive) | 3.26 µM (inactive) | 1.77 µM (inactive) | 2.43 µM (inactive) | 3.01 µM (inactive) | – | 1.6 µM (inactive) | 7.1 µM (inactive) | 3.04 µM (inactive) | 5.02 µM (inactive) | 1.19 µM (inactive) | 4.07 µM (inactive) |
| CC(C)OP(=O)(OC(C)C)/C(C#N)=C/c1c[nH]c2ccccc12 | > 100 µM (inactive) | 86.3 µM (inactive) | 31 µM (inactive) | > 100 µM (inactive) | > 100 µM (inactive) | > 100 µM (inactive) | > 100 µM (inactive) | > 100 µM (inactive) | > 100 µM (inactive) | > 100 µM (inactive) | > 100 µM (inactive) | > 100 µM (inactive) | 86.3 µM (inactive) | > 100 µM (inactive) | > 100 µM (inactive) | > 100 µM (inactive) | > 100 µM (inactive) | 68.1 µM (inactive) | > 100 µM (inactive) |
| CCOC(=O)/C(=C\c1c[nH]c2ccccc12)P(=O)(OCC)OCC | 31.3 µM (inactive) | 41.4 µM (inactive) | 25.4 µM (inactive) | > 100 µM (inactive) | 65.3 µM (inactive) | 32.9 µM (inactive) | 42.6 µM (inactive) | 28.4 µM (inactive) | 42.8 µM (inactive) | 39 µM (inactive) | 33.2 µM (inactive) | 27.7 µM (inactive) | 18.9 µM (inactive) | 24.5 µM (inactive) | 26.2 µM (inactive) | 21.9 µM (inactive) | 36.8 µM (inactive) | 25.1 µM (inactive) | 42.6 µM (inactive) |
| COc1ccc2cc(Oc3ccc(Cl)cc3)c(=O)oc2c1 | > 100 µM (inactive) | > 100 µM (inactive) | > 100 µM (inactive) | > 100 µM (inactive) | > 10 µM (inactive) | > 100 µM (inactive) | 50.1 µM (inactive) | > 100 µM (inactive) | > 100 µM (inactive) | > 100 µM (inactive) | > 100 µM (inactive) | > 100 µM (inactive) | > 100 µM (inactive) | > 100 µM (inactive) | > 100 µM (inactive) | > 100 µM (inactive) | > 100 µM (inactive) | > 100 µM (inactive) | > 100 µM (inactive) |
| CCCCCCCCCCCCCCCCOc1ccc(/C=C/C2=[N+](CCCl)CCO2)cc1 | 30.8 µM (inactive) | > 100 µM (inactive) | > 100 µM (inactive) | > 100 µM (inactive) | > 100 µM (inactive) | 25.5 µM (inactive) | 87.3 µM (inactive) | > 100 µM (inactive) | > 100 µM (inactive) | 61.2 µM (inactive) | > 100 µM (inactive) | 20.1 µM (inactive) | > 100 µM (inactive) | 90.4 µM (inactive) | > 100 µM (inactive) | > 100 µM (inactive) | > 100 µM (inactive) | 30.1 µM (inactive) | 47.1 µM (inactive) |
| S=C1SC(=N\c2ccccc2)/C(=N/c2ccccc2)N1c1ccc2ccccc2c1 | – | – | > 100 µM (inactive) | > 100 µM (inactive) | > 100 µM (inactive) | 12.1 µM (inactive) | > 100 µM (inactive) | – | 64.1 µM (inactive) | > 100 µM (inactive) | > 100 µM (inactive) | > 100 µM (inactive) | > 100 µM (inactive) | > 10 µM (inactive) | > 100 µM (inactive) | – | > 100 µM (inactive) | > 100 µM (inactive) | – |
